Assay results reported in patent US9296745B2, “Diacylglycerol acyltransferase 2 inhibitors” (Pfizer Inc., priority 2012, dated 2016).
Like-named read-outs stand apart in the source and are kept apart here.

Target: Human DGAT2 (hDGAT2) (Homo sapiens (Human), UniProt Q96PD7)
Experiment: In vitro DGAT2 assay, IC50 determination with hDGAT2 membrane fraction
Assay type: biochemical
Conditions: read-out: DGAT2 IC50
Method in brief: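 CHAPS-solubilized membrane fraction of FLAG-tagged hDGAT2 from baculovirus-infected SF9 cells (0.01 mg/mL) in 100 mM Hepes-NaOH pH 7.4, 20 mM MgCl2, 200 nM methyl arachidonyl fluorophosphonate; compounds pre-incubated 20 min with 0.04% BSA. Reaction 40 min at room temperature, stopped with H3PO4. [^14C]tridecanoylglycerol in organic phase counted; 11-point geometric mean IC50.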

[1] = geometric mean, background for complete inhibition of DGAT2 obtained with 50 μM (1R,2R)-2-({3′-Fluoro-4′-[(6-fluoro-1,3-benzothiazol-2-yl)amino]-1,1′-biphenyl-4-yl}carbonyl)cyclopentanecarboxylic acid

Chain of Human DGAT2 (hDGAT2) (Q96PD7 whole entry): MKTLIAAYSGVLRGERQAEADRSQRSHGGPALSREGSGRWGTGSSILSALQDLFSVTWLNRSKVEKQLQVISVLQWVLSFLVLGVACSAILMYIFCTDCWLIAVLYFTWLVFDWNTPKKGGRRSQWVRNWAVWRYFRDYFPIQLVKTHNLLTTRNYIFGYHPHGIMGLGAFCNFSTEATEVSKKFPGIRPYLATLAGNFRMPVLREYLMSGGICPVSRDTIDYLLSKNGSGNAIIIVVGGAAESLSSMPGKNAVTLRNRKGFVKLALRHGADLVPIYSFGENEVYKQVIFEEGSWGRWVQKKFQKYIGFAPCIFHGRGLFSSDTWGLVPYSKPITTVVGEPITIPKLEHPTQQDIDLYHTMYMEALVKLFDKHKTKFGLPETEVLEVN

Row | SMILES | IC50 [1] [nM] | IC50 [nM]
1 | FC(F)Oc1cccc(-c2nc3ccc(N4CCO[C@H](c5ccccn5)C4)nc3[nH]2)c1 [Example 145, (S)-4-(2-(3-(difluoromethoxy)phenyl)-3H-imidazo[4,5-b]pyridin-5-yl)-2-(pyridin-2-yl)morpholine] | 411 | 
2 | O=C([C@H]1CN(c2ccc3nc(-c4cncc(C5CC5)n4)[nH]c3n2)CCO1)N1CCCC1 [Example 146, (R)-(4-(2-(6-Cyclopropylpyrazin-2-yl)-3H-imidazo[4,5-b]pyridin-5-yl)morpholin-2-yl)(pyrrolidin-1-yl)methanone] | 401 | 
3 | O=C([C@@H]1CCCN(c2ccc3nc(-c4ccnc(C5CCC5)n4)[nH]c3n2)C1)N1CCCC1 [Example 147, (R)-(1-(2-(2-Cyclobutylpyrimidin-4-yl)-3H-imidazo[4,5-b]pyridin-5-yl)piperidin-3-yl)(pyrrolidin-1-yl)methanone] | 9.21 | 
4 | O=C([C@@H]1CCCN(c2ccc3nc(-c4nccc(C5CC5)n4)[nH]c3n2)C1)N1CCOCC1 [Example 149, (R)-(1-(2-(4-Cyclopropylpyrimidin-2-yl)-3H-imidazo[4,5-b]pyridin-5-yl)piperidin-3-yl)(morpholino)methanone] | 766 | 
5 | CN(C)C(=O)[C@@H]1CCCN(c2ccc3nc(-c4cccc(C5CC5)n4)[nH]c3n2)C1 [Example 150, (R)-1-(2-(6-Cyclopropylpyridin-2-yl)-3H-imidazo[4,5-b]pyridin-5-yl)-N,N-dimethylpiperidine-3-carboxamide] | 47.3 | 
6 | Clc1cccc(-c2nc3ccc(N4CCO[C@@H](c5ccccn5)C4)nc3[nH]2)c1 [Example 152, (R)-4-(2-(3-chlorophenyl)-3H-imidazo[4,5-b]pyridin-5-yl)-2-(pyridin-2-yl)morpholine] |  | 285
7 | O=C([C@@H]1CCCN(c2ccc3nc(-c4cccc(C5CC5)n4)[nH]c3n2)C1)N1CCOCC1 [Example 153, (R)-(1-(2-(6-Cyclopropylpyridin-2-yl)-3H-imidazo[4,5-b]pyridin-5-yl)piperidin-3-yl)(morpholino)methanone] |  | 48.1
8 | O=C([C@@H]1CCCN(c2ccc3nc(-c4cccc(Cl)c4)[nH]c3n2)C1)N1CCOCC1 [Example 154, (R)-(1-(2-(3-Chlorophenyl)-3H-imidazo[4,5-b]pyridin-5-yl)piperidin-3-yl)(morpholino)methanone] |  | 40.5
9 | O=C([C@@H]1CCCN(c2ccc3nc(-c4cccc(OC(F)F)c4)[nH]c3n2)C1)N1CCOCC1 [Example 155, (R)-(1-(2-(3-(Difluoromethoxy)phenyl)-3H-imidazo[4,5-b]pyridin-5-yl)piperidin-3-yl)(morpholino)methanone] |  | 35.6
10 | N#CC1(c2cccc(-c3nc4ccc(N5CCC[C@@H](C(=O)N6CCCC6)C5)nc4[nH]3)n2)CC1 [Example 156, (R)-1-(6-(5-(3-(Pyrrolidine-1-carbonyl)piperidin-1-yl)-1H-imidazo[4,5-b]pyridin-2-yl)pyridin-2-yl)cyclopropanecarbonitrile] | 275 | 
11 | CC(c1ccccc1)c1nc2ccc(N3CCC[C@@H](C(=O)N4CCCC4)C3)nc2[nH]1 (stereo partly drawn) [Example 157, (R)-(1-(2-(1-Phenylethyl)-3H-imidazo[4,5-b]pyridin-5-yl)piperidin-3-yl)(pyrrolidin-1-yl)methanone] | 211 | 
12 | O=C([C@@H]1CCCN(c2ccc3nc(-c4cccc(C5CC5)n4)[nH]c3n2)C1)N1CC=CC1 [Example 158, (R)-(1-(2-(6-Cyclopropylpyridin-2-yl)-3H-imidazo[4,5-b]pyridin-5-yl)piperidin-3-yl)(2,5-dihydro-1H-pyrrol-1-yl)methanone] | 3.58 | 
13 | O=C([C@@H]1CCCN(c2ncc3nc(-c4ccnc(C5CC5)n4)[nH]c3n2)C1)N1CCCC1 [Example 159, (R)-(1-(8-(2-Cyclopropylpyrimidin-4-yl)-9H-purin-2-yl)piperidin-3-yl)(pyrrolidin-1-yl)methanone] | 28.2 | 
14 | O=C([C@@H]1CCCN(c2ccc3nc(C4(c5ccc[n+]([O-])c5)CC4)[nH]c3n2)C1)N1CCCC1 [Example 160, (R)-3-(1-(5-(3-(Pyrrolidine-1-carbonyl)piperidin-1-yl)-3H-imidazo[4,5-b]pyridin-2-yl)cyclopropyl)pyridine 1-oxide] |  | 789
15 | O=C([C@@H]1CCCN(c2ccc3nc(C4(c5ccncc5)CC4)[nH]c3n2)C1)N1CCCC1 [Example 161, (R)-(1-(2-(1-(Pyridin-4-yl)cyclopropyl)-3H-imidazo[4,5-b]pyridin-5-yl)piperidin-3-yl)(pyrrolidin-1-yl)methanone] | 218 | 
16 | Cc1cc(N2CCC[C@@H](C(=O)N3CCCC3)C2)nc2[nH]c(-c3ccnc(C4CC4)n3)nc12 [Example 162, (R)-(1-(2-(2-Cyclopropylpyrimidin-4-yl)-7-methyl-3H-imidazo[4,5-b]pyridin-5-yl)piperidin-3-yl)(pyrrolidin-1-yl)methanone] | 434 | 
17 | O=C([C@@H]1CCCN(c2ccc3nc(-c4cccc(-c5nnn[nH]5)c4)[nH]c3n2)C1)N1CCCC1 [Example 163, (R)-(1-(2-(3-(2H-Tetrazol-5-yl)phenyl)-3H-imidazo[4,5-b]pyridin-5-yl)piperidin-3-yl)(pyrrolidin-1-yl)methanone] | 3400 | 

Now from value to molecule:

Row | IC50 [1] [nM] | IC50 [nM] | SMILES
18 | 2800 |  | CN(C)C(=O)[C@H]1CN(c2ccc3nc(-c4ccnc(C5CC5)n4)[nH]c3n2)CC(F)(F)C1 [Example 164, (R)-1-(2-(2-Cyclopropylpyrimidin-4-yl)-3H-imidazo[4,5-b]pyridin-5-yl)-5,5-difluoro-N,N-dimethylpiperidine-3-carboxamide]
19 | 16500 |  | CN(C)C(=O)[C@@H]1CN(c2ccc3nc(-c4ccnc(C5CC5)n4)[nH]c3n2)CC(F)(F)C1 [Example 165, (S)-1-(2-(2-cyclopropylpyrimidin-4-yl)-3H-imidazo[4,5-b]pyridin-5-yl)-5,5-difluoro-N,N-dimethylpiperidine-3-carboxamide]
20 | 2280 |  | O=C([C@@H]1CCCN(c2ccc3nc(C(F)(F)c4ccccc4)[nH]c3n2)C1)N1CCCC1 [Example 166, (R)-(1-(2-(Difluoro(phenyl)methyl)-3H-imidazo[4,5-b]pyridin-5-yl)piperidin-3-yl)(pyrrolidin-1-yl)methanone]
21 | 1390 |  | c1cc(-c2nc3ccc(N4CCC[C@H](c5nnc6n5CCC6)C4)nc3[nH]2)nc(C2CC2)n1 [Example 168, (S)-2-(2-cyclopropylpyrimidin-4-yl)-5-(3-(6,7-dihydro-5H-pyrrolo[2,1-c][1,2,4]triazol-3-yl)piperidin-1-yl)-3H-imidazo[4,5-b]pyridine]
22 | 161 |  | c1cc(-c2nc3ccc(N4CCC[C@H](c5nnc6n5CCC6)C4)nc3[nH]2)nc(C2CC2)c1 [Example 171, (S)-2-(6-cyclopropylpyridin-2-yl)-5-(3-(6,7-dihydro-5H-pyrrolo[2,1-c][1,2,4]triazol-3-yl)piperidin-1-yl)-3H-imidazo[4,5-b]pyridine]
23 | 83 |  | NC(=O)c1cccc(-c2nc3ccc(N4CCC[C@@H](C(=O)N5CCCC5)C4)nc3[nH]2)n1 [Example 172, (R)-6-(5-(3-(Pyrrolidine-1-carbonyl)piperidin-1-yl)-3H-imidazo[4,5-b]pyridin-2-yl)picolinamide]
24 | 1250 |  | CN(C)C(=O)c1cccc(-c2nc3ccc(N4CCC[C@@H](C(=O)N5CCCC5)C4)nc3[nH]2)n1 [Example 173, (R)—N,N-Dimethyl-6-(5-(3-(pyrrolidine-1-carbonyl)piperidin-1-yl)-3H-imidazo[4,5-b]pyridin-2-yl)picolinamide]
25 | 1170 |  | O=C([C@@H]1CCCN(c2ccc3nc(-c4ccnc(C5CC5)n4)[nH]c3n2)C1)N1C[C@H]2C[C@@H]1CO2 [Example 174, (1R,4R)-2-Oxa-5-azabicyclo[2.2.1]heptan-5-yl((R)-1-(2-(2-cyclopropylpyrimidin-4-yl)-3H-imidazo[4,5-b]pyridin-5-yl)piperidin-3-yl)methanone]
26 | 73.4 |  | O=C([C@@H]1CCCN(c2ccc3nc(-c4ccnc(C5CC5)n4)[nH]c3n2)C1)N1CC(F)(F)C1 [Example 176, (R)-(1-(2-(2-Cyclopropylpyrimidin-4-yl)-3H-imidazo[4,5-b]pyridin-5-yl)piperidin-3-yl)(3,3-difluoroazetidin-1-yl)methanone]
27 | 953 |  | C[C@H]1CO[C@@H](c2ccccn2)CN1c1ccc2nc(-c3cccc(Cl)c3)[nH]c2n1 [Example 177, (2R,5S)-4-(2-(3-Chlorophenyl)-3H-imidazo[4,5-b]pyridin-5-yl)-5-methyl-2-(pyridin-2-yl)morpholine]
28 | 512 |  | CS(=O)(=O)c1cncc(-c2nc3ccc(N4CCC[C@@H](C(=O)N5CCCC5)C4)nc3[nH]2)c1 [Example 179, (R)-(1-(2-(5-(Methylsulfonyl)pyridin-3-yl)-3H-imidazo[4,5-b]pyridin-5-yl)piperidin-3-yl)(pyrrolidin-1-yl)methanone]
29 | 434 |  | C[C@@H]1CCN(c2ccc3nc(-c4cccc(OC(F)F)c4)[nH]c3n2)C[C@@H]1C(=O)N(C)C [Example 180, (3R,4R)-1-(2-(3-(Difluoromethoxy)phenyl)-3H-imidazo[4,5-b]pyridin-5-yl)-N,N,4-trimethylpiperidine-3-carboxamide]
30 |  | 17400 | C[C@H]1CCN(c2ccc3nc(-c4cccc(OC(F)F)c4)[nH]c3n2)C[C@H]1C(=O)N(C)C [Example 181, (3S,4S)-1-(2-(3-(difluoromethoxy)phenyl)-3H-imidazo[4,5-b]pyridin-5-yl)-N,N,4-trimethylpiperidine-3-carboxamide]
31 | 6.03 |  | O=C([C@@H]1CCCN(c2ccc3nc(-c4cccc(C5CC5)n4)[nH]c3n2)C1)N1CCCC1 [Example 182, (R)-(1-(2-(6-Cyclopropylpyridin-2-yl)-3H-imidazo[4,5-b]pyridin-5-yl)piperidin-3-yl)(pyrrolidin-1-yl)methanone]
